Experimental findings from US6828315B1, “1-Amino triazoloc4,3-a! quinazoline-5-ones and/or -5-thiones inhibiting phosphodiesterase IV” (Warner-Lambert LLC, priority 1999, dated 2004) are described below.

On to `O=C(Cn1c(=O)c2cc(Cl)ccc2n2c(N3CCCCCC3)nnc12)c1ccc(Cl)cc1` [Compound 29, 1-(azepan-1-yl)-7-chloro-4[2-(4-chlorophenyl)-2-oxoethyl]-4H-[1,2,4]triazolo[4,3-a]quinazolin-5-one], for which the melting point was found to be 190 °C.
The value for `COC(=O)c1cc(C(=O)Cn2c(=O)c3cc(Cl)ccc3n3c(N4CCCCCC4)nnc23)ccc1OC` [Compound 30, 5-[(1-(azepan-1-yl)-7-chloro-5-oxo-5H-[1,2,4]triazolo[4,3-a]-quinazolin-4-yl)acetyl]-2-methoxybenzoic acid methyl ester] was 140 °C; that for `O=c1c2cc(Cl)ccc2n2c(N3CCCC3)nnc2n1Cc1cccnc1` [Compound 31, 7-Chloro-4-pyridin-3-ylmethyl-1-pyrrolidin-1-yl-4H-[1,2,4]triazolo[4,3-a]quinazolin-5-one] was 176 °C.
The value for `O=c1c2cc(Br)ccc2n2c(N3CCCCCC3)nnc2n1Cc1ccc(F)cc1` [Compound 33, 1-Azepan-1-yl-7-bromo-4-(4-fluoro-benzyl)-4H-[1,2,4]triazolo[4,3-a]quinazolin-5-one] was 158 °C; that for `O=c1c2cc(Br)ccc2n2c(N3CCCCCC3)nnc2n1Cc1cccnc1` [Compound 36, 1-(azepan-1-yl)-7-bromo-4-(3-pyridinylmethyl)-4H-[1,2,4]triazolo[4,3-a]quinazolin-5-one] was 180 °C.
The same measure for `O=c1c2cc(Br)ccc2n2c(N3CCCCCC3)nnc2n1CC=Cc1ccc(Cl)cc1` [Compound 38, 1-Azepan-1-yl-7-bromo-4-[3-(4-chloro-phenyl)-allyl]-4H-[1,2,4]triazolo[4,3-a]quinazolin-5-one]: 176 °C.
On to `COc1ccc(C=CCn2c(=O)c3cc(Br)ccc3n3c(N4CCCCCC4)nnc23)cc1` [Compound 39, 1-Azepan-1-yl-7-bromo-4-[3-(4-methoxy-phenyl)-allyl]-4H-[1,2,4]triazolo[4,3-a]quinazolin-5-one], for which the melting point is 129 °C.
In turn, `N#Cc1cccc(Cn2c(=O)c3cc(Br)ccc3n3c(N4CCCC4)nnc23)c1` [Compound 45, 3-(7-Bromo-5-oxo-1-pyrrolidin-1-yl-5H-[1,2,4]triazolo[4,3-a]quinazolin-4-ylmethyl)benzonitrile] gave a melting point of 206 °C.
The same measure for `COc1cc(Cn2c(=O)c3cc(Br)ccc3n3c(N4CCCC4)nnc23)cc(OC)c1OC` [Compound 55, 7-Bromo-1-pyrrolidin-1-yl-4-(3,4,5-trimethoxy-benzyl)-4H-[1,2,4]triazolo[4,3-a]quinazolin-5-one]: 141 to 143 °C.
As for `O=C(O)Cc1ccc(Cn2c(=O)c3cc(Br)ccc3n3c(N4CCCC4)nnc23)cc1` [Compound 56, [4-(7-Bromo-5-oxo-1-pyrrolidin-1-yl-5H-[1,2,4]triazolo[4,3-a]quinazolin-4-ylmethyl)-phenyl]-acetic acid], the melting point turned out to be 260 °C.
For the compound `O=c1c2cc(Br)ccc2n2c(N3CCCC3)nnc2n1CC=Cc1ccccc1` [Compound 58, 7-Bromo-4-(3-phenyl-allyl)-1-pyrrolidin-1-yl-4H-[1,2,4]triazolo[4,3-a]quinazolin-5-one], the melting point was 110 °C.
For `O=c1c2cc(Br)ccc2n2c(N3CCCC3)nnc2n1Cc1c[nH]cn1` [Compound 63, 7-Bromo-4-(1H-imidazol-4-ylmethyl)-1-pyrrolidin-1-yl-4H-[1,2,4]triazolo[4,3-a]quinazolin-5-one], the melting point was 290 °C (dec.).
In turn, `Cc1noc(C)c1Cn1c(=O)c2cc(Br)ccc2n2c(N3CCCC3)nnc12` [Compound 64, 7-Bromo-4-(3,5-dimethyl-isoxazol-4-ylmethyl)-1-pyrrolidin-1-yl-4H-[1,2,4]triazolo[4,3-a]quinazolin-5-one] gave a melting point of 221 °C.
The same measure for `O=c1c2cc(Br)ccc2n2c(N3CCCC3)nnc2n1CC1CCCC1` [Compound 65, 7-Bromo-4-cyclopentylmethyl-1-pyrrolidin-1-yl-4H-[1,2,4]triazolo[4,3-a]quinazolin-5-one]: 155 °C; for `CCCCn1c(=O)c2cc(Br)ccc2n2c(N3CCCC3)nnc12` [Compound 66, 7-Bromo-4-butyl-1-pyrrolidin-1-yl-4H-[1,2,4]triazolo[4,3-a]quinazolin-5-one]: 135 °C.
In turn, `O=c1c2cc(Br)ccc2n2c(N3CCCC3)nnc2n1CC(F)(F)F` [Compound 67, 7-Bromo-1-pyrrolidin-1-yl-4-(2,2,2-trifluoro-ethyl)-4H-[1,2,4]triazolo[4,3-a]quinazolin-5-one] showed a melting point of 202 °C.
The value for `O=c1c2cc(Br)ccc2n2c(N3CCCC3)nnc2n1CCO` [Compound 68, 7-Bromo-4-(2-hydroxy-ethyl)-1-pyrrolidin-1-yl-4H-[1,2,4]triazolo[4,3-a]quinazolin-5-one] was 240 °C; that for `C#CCn1c(=O)c2cc(Br)ccc2n2c(N3CCCC3)nnc12` [Compound 70, 7-Bromo-4-prop-2-ynyl-1-pyrrolidin-1-yl-4H-[1,2,4]triazolo[4,3-a]quinazolin-5-one] was 204 °C; that for `O=c1c2cc(Br)ccc2n2c(N3CCCC3)nnc2n1CCOc1ccccc1` [Compound 71, 7-Bromo-4-(2-phenoxy-ethyl)-1-pyrrolidin-1-yl-4H-[1,2,4]triazolo[4,3-a]quinazolin-5-one] was 171 °C.
The same measure for `O=c1c2cc(Br)ccc2n2c(N3CCCC3)nnc2n1CCSc1ccccc1` [Compound 72, 7-Bromo-4-(2-phenylsulfenyl-ethyl)-1-pyrrolidin-1-yl-4H-[1,2,4]triazolo[4,3-a]quinazolin-5-one]: 122 °C; for `COC(=O)C(c1ccccc1)n1c(=O)c2cc(Br)ccc2n2c(N3CCCC3)nnc12` (stereo not drawn) [Compound 73, (7-Bromo-5-oxo-1-pyrrolidin-1-yl-5H-[1,2,4]triazolo[4,3-a]quinazolin-4-yl)-phenyl-acetic acid methyl ester]: 184 °C.
As to `N#Cc1ccc(Cn2c(=O)c3cc(Br)ccc3n3c(N4CCCCC4)nnc23)cc1` [Compound 74, 4-(7-Bromo-5-oxo-1-piperidin-1-yl-5H-[1,2,4]triazolo[4,3-a]quinazolin-4-ylmethyl)-benzonitrile], the melting point was found to be 200 °C.
The same measure for `O=c1c2cc(Br)ccc2n2c(N3CCSCC3)nnc2n1CC=Cc1cccnc1` [Compound 77, 7-Bromo-4(3-pyridin-3-yl-allyl)-1-thiomorpholin-4-yl-4H-[1,2,4]triazolo[4,3-a]quinazolin-5-one]: 177 °C; for `CN(C)c1nnc2n(Cc3ccc(CC(=O)O)cc3)c(=O)c3cc(Br)ccc3n12` [Compound 82, [4-(7-Bromo-1-dimethylamino-5-oxo-5H-[1,2,4]triazolo[4,3-a]quinazolin-4-ylmethyl)-phenyl]-acetic acid]: 246 °C; for `CN(C)c1nnc2n(Cc3cccnc3)c(=O)c3cc(Br)ccc3n12` [Compound 84, 7-Bromo-1-dimethylamino-4-pyridin-3-ylmethyl-4H-[1,2,4]triazolo[4,3-a]quinazolin-5-one]: 142 °C.
The value for `CN(C)c1nnc2n(CC=Cc3ccccc3)c(=O)c3cc(Br)ccc3n12` [Compound 86, 7-Bromo-1-dimethylamino-4-(3-phenyl-allyl)-4H-[1,2,4]triazolo[4,3-a]quinazolin-5-one] was 167 °C; that for `CN(C)c1nnc2n(CC=Cc3ccncc3)c(=O)c3cc(Br)ccc3n12` [Compound 87, 7-Bromo-1-dimethylamino-4-(3-pyridin-4-yl-allyl)-4H-[1,2,4]triazolo[4,3-a]quinazolin-5-one] was 115 °C.
For `C#CCn1c(=O)c2cc(Br)ccc2n2c(N(C)C)nnc12` [Compound 88, 7-Bromo-1-dimethylamino-4-prop-2-ynyl-4H-[1,2,4]triazolo[4,3-a]quinazolin-5-one], the melting point is 234 °C.
The same measure for `COC(=O)C(c1ccccc1)n1c(=O)c2cc(Br)ccc2n2c(N(C)C)nnc12` (stereo not drawn) [Compound 90, (7-Bromo-1-dimethylamino-5-oxo-5H-[1,2,4]triazolo[4,3-a]quinazolin-4-yl)-phenyl-acetic acid methyl ester]: 243 °C.
As for `COC(=O)c1ccc(Cn2c(=O)c3cc(C)ccc3n3c(N4CCCC4)nnc23)cc1` [Compound 95, 4(7-Methyl-5-oxo-1-pyrrolidin-1-yl-5H-[1,2,4]triazolo[4,3-a]quinazolin-4-ylmethyl)-benzoic acid methyl ester], the melting point turned out to be 230 °C.
The same measure for `Cc1ccc2c(c1)c(=O)n(Cc1cccnc1)c1nnc(N3CCCC3)n21` [Compound 97, 7-Methyl-4-pyridin-3-ylmethyl-1-pyrrolidin-1-yl-4H-[1,2,4)triazolo[4,3-a]quinazolin-5-one]: 139 °C.
Compound `Cc1ccc2c(c1)c(=O)n(CC=Cc1cccnc1)c1nnc(N3CCSCC3)n21` [Compound 100, 7-Methyl-4-(3-pyridin-3-yl-allyl)-1-thiomorpholin-4-yl-4H-[1,2,4]triazolo[4,3-a]quinazolin-5-one] registered a melting point of 230 °C.
The compound `Cc1ccc2c(c1)c(=O)n(CC=Cc1ccncc1)c1nnc(N(C)C)n21` [Compound 105, 1-Dimethylamino-7-methyl-4-(3-pyridin-4yl-allyl)-4H-[1,2,4]triazolo[4,3-a]quinazolin-5-one] showed a melting point of 119 °C.
The value for `CN(C)c1nnc2n(Cc3ccc(C#N)cc3)c(=O)c3cc(C#N)ccc3n12` [Compound 107, 4-(4-Cyano-benzyl)-1-dimethylamino-5-oxo-4,5-dihydro-[1,2,4]triazolo[4,3-a]quinazoline-7-carbonitrile] was 147 to 149 °C.
As for `O=c1c2cc(O)ccc2n2c(N3CCCC3)nnc2n1C/C=C/c1ccccc1` [Compound 108, 7-Hydroxy-4-((E)-3-phenyl-allyl)-1-pyrrolidin-1-yl-4H-[1,2,4]triazolo[4,3-a]quinazolin-5-one], the melting point is 295 °C (dec.).
The same measure for `O=c1nc2n(CC=Cc3ccccc3)nc(N3CCCCCC3)n2c2ccccc12` [Compound 109, 1-(azepan-1-yl)-3-(3-phenylallyl)-3H-[1,2,4]triazolo[4,3-a]-quinazolin-5-one]: 176 °C.

What is called melting point is the temperature of the solid-liquid transition.
